Here are results for one molecule from US5292892A, “Anti-bacterial compound and pharmaceutical compositions thereof” (Sankyo Company, Limited, priority 1991, dated 1994).

Broadly, the MIC is the least concentration at which growth counts as inhibited.

Converted amounts (≈) assume the structure as drawn.

Data set [1] deals with Mycoplasma gallisepticum S-6. The data set is described as follows: Antimycoplasmal activity (MIC). The note with it: Mycoplasmoides gallisepticum, S6, 120 h; Chanock medium, 20% horse serum; 37° C., 5 days, slightly aerobic; 0.005 ml of 10^5 CFU/ml. Type of data set: cell-based.
The subject of data set [2] is Mycoplasma hyosynoviae S-16. Kind of data set: Antimycoplasmal activity (MIC). Type of data set: cell-based. The note with it: S16, 120 h, Mucin PPLO agar medium, 15% horse serum, 37° C., 5 days, slightly aerobic, 0.005 ml of 10^5 CFU/ml. How it is done:
(§1) Following the procedure as described below, the activity of thiomarinol was assayed against various species of mycoplasma.
M. hyosynoviae Mucin PPLO* agar medium (15%
horse serum supplemented)
(§2) 37° C., 5 days, slightly aerobic
(§3) (BBL gas pack method [cultivation
(§4) in disposable CO2 generator from
(§5) Becton Dickinson Microbiology
(§6) Systems, Cockeysville, MD 2103
*PPLO ( -- Pleuro -- Pneumonia- -- Like
PPLO Broth without CV (Difco)
Mucin bacteriological (Difco)
Agar Noble (Difco) 12 g
25% Fresh yeast extract 50 ml

Data set [3] has as its system Mycoplasma synoviae WVU1853. The data set is described as follows: Antimycoplasmal activity (MIC). Type of data set: cell-based. The note with it: Mycoplasmopsis synoviae, WVU1853, 120 h; Frey medium, 12% swine serum; 37° C., 5 days, slightly aerobic; 0.005 ml of 10^5 CFU/ml. The procedure: as §1
M. synoviae Frey medium [prepared as de-
scribed in Am. J. Vet. Res., --29,
as §2, §3, §4, §5, §6

A further data set can be described thus: Solubility. Type of data set: physicochemical.
The subject of the next data set is Mycoplasma bovis Donetta. Kind of data set: Antimycoplasmal activity (MIC). Type of data set: cell-based. The note with it: Mycoplasmopsis bovis, 120 h; Chanock medium, 20% horse serum; 37° C., 5 days, slightly aerobic; 0.005 ml of 10^5 CFU/ml.
The test system of data set [4] is Mycoplasma gallisepticum PG-31. The data set is described as follows: Antimycoplasmal activity (MIC). Type of data set: cell-based. The note with it: Mycoplasmoides gallisepticum, PG31, 120 h; Chanock medium, 20% horse serum; 37° C., 5 days, slightly aerobic; 0.005 ml of 10^5 CFU/ml.
Data set [5] deals with Mycoplasma gallisepticum K-1. The data set is described as follows: Antimycoplasmal activity (MIC). Type of data set: cell-based. The note with it: Mycoplasmoides gallisepticum, K1, 120 h; Chanock medium, 20% horse serum; 37° C., 5 days, slightly aerobic; 0.005 ml of 10^5 CFU/ml.
Data set [6] deals with Staphylococcus aureus 56R. Kind of data set: MIC, agar medium dilution method. The note with it: nutrient agar. Type of data set: cell-based. The procedure: (§7) The minimum inhibitory concentration (MIC) of thiomarinol, given as μg/ml, against gram-positive and gram-negative bacteria was determined by the agar medium dilution method, using a nutrient agar medium (Product of Eiken Chemical Co., Ltd.).

The subject of the next data set is Morganella morganii 1510. Kind of data set: MIC, agar medium dilution method. Type of data set: cell-based. The note with it: nutrient agar. The procedure:
as §7

Data set [7] has as its system Enterococcus faecalis 681. Kind of data set: MIC, agar medium dilution method. In kind it is cell-based. The note with it: nutrient agar. How it is done: as §7
For another data set, the system named is Escherichia coli NHIJ. The data set is described as follows: MIC, agar medium dilution method. Type of data set: cell-based. The note with it: nutrient agar. The procedure:
as §7

Data set [8] concerns Pseudomonas aeruginosa 1001. Kind of data set: MIC, agar medium dilution method. In kind it is cell-based. The note with it: nutrient agar. The procedure: as §7
A further data set relates to Proteus vulgaris 1420. Kind of data set: MIC, agar medium dilution method. Type of data set: cell-based. The note with it: nutrient agar. The procedure:
as §7

Data set [9] has as its system Staphylococcus aureus 209P. The data set is described as follows: MIC, agar medium dilution method. In kind it is cell-based. The note with it: nutrient agar. The procedure: as §7
Another data set concerns Serratia marcescens 1184. The data set is described as follows: MIC, agar medium dilution method. Type of data set: cell-based. The note with it: nutrient agar. How it is done:
as §7

In data set [10] the test system is Staphylococcus aureus 535 (MRSA). The data set is described as follows: MIC, agar medium dilution method. In kind it is cell-based. The note with it: nutrient agar. How it is done: as §7
A further data set has as its system Salmonella enteritidis. Kind of data set: MIC, agar medium dilution method. The note with it: Salmonella enterica, nutrient agar. Type of data set: cell-based. The procedure:
as §7

Another data set deals with Escherichia coli 609. The data set is described as follows: MIC, agar medium dilution method. In kind it is cell-based. The note with it: nutrient agar. How it is done:
as §7

The subject of another data set is Enterobacter cloacae 963. Kind of data set: MIC, agar medium dilution method. The note with it: nutrient agar. Type of data set: cell-based. How it is done:
as §7

Data set [11] relates to Klebsiella pneumoniae 806. Kind of data set: MIC, agar medium dilution method. Type of data set: cell-based. The note with it: nutrient agar. How it is done:
as §7

The test system of data set [12] is Klebsiella pneumoniae 846 (R). Kind of data set: MIC, agar medium dilution method. Type of data set: cell-based. The note with it: nutrient agar, (R) strain. The procedure:
as §7

Data set [13] relates to Pseudomonas aeruginosa N07. Kind of data set: MIC, agar medium dilution method. Type of data set: cell-based. The note with it: nutrient agar. How it is done:
as §7

As to `C/C(=C\C(=O)OCCCCCCCC(=O)Nc1c2sscc-2[nH]c1=O)C(O)C1OCC(C/C=C/C(C)C(C)O)C(O)C1O` (single isomer, unassigned) [thiomarinol], the MIC in [1] was 0.1 µg/mL (≈ 0.156 µM); in data set [2] it was 0.025 µg/mL (≈ 0.039 µM); in data set [3] it was < 0.006 µg/mL; against Mycoplasma bovis Donetta, 0.0125 µg/mL (≈ 0.0195 µM); in [4], 0.05 µg/mL (≈ 0.078 µM); in data set [5] it was 0.05 µg/mL (≈ 0.078 µM). For the same molecule, the MIC in data set [6] was ≤ 0.01 µg/mL; against Morganella morganii 1510, 6.2 µg/mL (≈ 9.68 µM); in data set [7] it was 0.02 µg/mL (≈ 0.0312 µM); against Escherichia coli NHIJ, 0.8 µg/mL (≈ 1.25 µM); in data set [8] it was 0.2 µg/mL (≈ 0.312 µM); with Proteus vulgaris 1420, 0.05 µg/mL (≈ 0.078 µM). Moreover, the MIC in data set [9] was ≤ 0.01 µg/mL; against Serratia marcescens 1184, 3.1 µg/mL (≈ 4.84 µM); in [10] it was ≤ 0.01 µg/mL; with Salmonella enteritidis, 0.4 µg/mL (≈ 0.624 µM); in the data set on Escherichia coli 609 it was 0.8 µg/mL (≈ 1.25 µM); with Enterobacter cloacae 963, 1.5 µg/mL (≈ 2.34 µM). Further, the MIC in data set [11] stood at 0.8 µg/mL (≈ 1.25 µM); in data set [12] it was 0.2 µg/mL (≈ 0.312 µM); in data set [13], 0.4 µg/mL (≈ 0.624 µM). Also, the Solubility result in the data set “Solubility” (alcohols (methanol, ethanol, propanol, butanol), dimethyl sulfoxide, dimethylformamide, chloroform, ethyl acetate, acetone, ethyl ether) is on record as “Soluble”; in the data set “Solubility” (hexane), “insoluble”; in the data set “Solubility” (water), “insoluble”.
